Measurements published in ChEMBL document CHEMBL1201862, “PubChem BioAssay data set” (2004).
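Values below derive from 48-hour exposures of cells grown in 96-well plates, with endpoints linearly interpolated between the two concentrations bracketing the appropriate inhibition level. GI50: concentration for 50% inhibition of growth.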 Activity calls are given as the source filed them. No stated cut-off is given here; in the data, active = GI50 up to about 1.1 µM and inactive = higher.

Key:
Test in all cases: NCI tumour cell line growth inhibition, 48 h
SW-620 = system: SW-620
RXF 393 = system: RXF 393
UACC-257 = system: UACC-257
K562 = system: K562
NCI-H460 = system: NCI-H460
HL-60 = system: HL-60
SNB-19 = system: SNB-19
LOX IMVI = system: LOX IMVI
OVCAR-5 = system: OVCAR-5
HCC 2998 = system: HCC 2998
NCI-H522 = system: NCI-H522
OVCAR-8 = system: OVCAR-8
LXFL 529 = system: LXFL 529
SNB-78 = system: SNB-78
Malme-3M = system: Malme-3M
MOLT-4 = system: MOLT-4
ACHN = system: ACHN
CCRF-CEM = system: CCRF-CEM
IGROV-1 = system: IGROV-1
KM12 = system: KM12
M14 = system: M14
DLD-1 = system: DLD-1
SK-MEL-2 = system: SK-MEL-2
RPMI-8226 = system: RPMI-8226
A549 = system: A549
786-0 = system: 786-0
HOP-62 = system: HOP-62
KM-20L2 = system: KM-20L2
HT-29 = system: HT-29
TK-10 = system: TK-10
SF-539 = system: SF-539
SK-MEL-5 = system: SK-MEL-5
SF-268 = system: SF-268
A498 = system: A498
HCT-15 = system: HCT-15
OVCAR-4 = system: OVCAR-4
EKVX = system: EKVX
SR = system: SR
UACC-62 = system: UACC-62
SF-295 = system: SF-295
DMS-114 = system: DMS-114
OVCAR-3 = system: OVCAR-3
DMS-273 = system: DMS-273
SN12C = system: SN12C
NCI-H23 = system: NCI-H23
U-251 = system: U-251
UO-31 = system: UO-31
SK-OV-3 = system: SK-OV-3
COLO 205 = system: COLO 205
SK-MEL-28 = system: SK-MEL-28
SNB-75 = system: SNB-75

`COC(=O)CCC1CCc2c(OC)ccc(OC)c2C1=O` (stereo unspecified) was tested, and the GI50 (SW-620) was > 100 µM (inactive), the GI50 (RXF 393) was > 100 µM (inactive) and the GI50 (UACC-257) was > 100 µM (inactive). The GI50 (K562) was > 100 µM (inactive), the GI50 (NCI-H460) was > 100 µM (inactive) and the GI50 (HL-60) was > 100 µM (inactive). For the same compound, the GI50 (SNB-19) was > 100 µM (inactive), the GI50 (LOX IMVI) was > 100 µM (inactive) and the GI50 (OVCAR-5) was > 100 µM (inactive). For the same compound, the GI50 (HCC 2998) was > 100 µM (inactive), the GI50 (NCI-H522) was > 100 µM (inactive) and the GI50 (OVCAR-8) was > 100 µM (inactive). The GI50 (LXFL 529) was > 100 µM (inactive), the GI50 (SNB-78) was > 100 µM (inactive) and the GI50 (Malme-3M) was > 100 µM (inactive). The GI50 (MOLT-4) was > 100 µM (inactive), the GI50 (ACHN) was > 100 µM (inactive) and the GI50 (CCRF-CEM) was > 100 µM (inactive). The GI50 (IGROV-1) was > 100 µM (inactive), the GI50 (KM12) was > 100 µM (inactive) and the GI50 (M14) was > 100 µM (inactive). The GI50 (DLD-1) was > 100 µM (inactive), the GI50 (SK-MEL-2) was > 100 µM (inactive) and the GI50 (RPMI-8226) was > 100 µM (inactive). For the same compound, the GI50 (A549) was > 100 µM (inactive), the GI50 (786-0) was > 100 µM (inactive) and the GI50 (HOP-62) was > 100 µM (inactive). The GI50 (KM-20L2) was > 100 µM (inactive), the GI50 (HT-29) was > 100 µM (inactive) and the GI50 (TK-10) was > 100 µM (inactive). The GI50 (SF-539) was > 100 µM (inactive), the GI50 (SK-MEL-5) was > 100 µM (inactive) and the GI50 (SF-268) was > 100 µM (inactive). For the same compound, the GI50 (A498) was > 10 µM (inactive), the GI50 (HCT-15) was greater than 100 µM and the GI50 (OVCAR-4) was > 100 µM (inactive). For the same compound, the GI50 (EKVX) was > 100 µM (inactive), the GI50 (SR) was > 100 µM (inactive) and the GI50 (UACC-62) was > 100 µM (inactive). For the same compound, the GI50 (SF-295) was > 100 µM (inactive), the GI50 (DMS-114) was > 100 µM (inactive) and the GI50 (OVCAR-3) was > 100 µM (inactive). For the same compound, the GI50 (DMS-273) was > 100 µM (inactive), the GI50 (SN12C) was > 100 µM (inactive) and the GI50 (NCI-H23) was > 100 µM (inactive). The GI50 (U-251) was > 100 µM (inactive), the GI50 (UO-31) was > 100 µM (inactive) and the GI50 (SK-OV-3) was > 100 µM (inactive). For the same compound, the GI50 (COLO 205) was > 100 µM (inactive), the GI50 (SK-MEL-28) was > 100 µM (inactive) and the GI50 (SNB-75) was > 100 µM (inactive).
